Experimental data: PMC6222422, “Synthesis and Biological Evaluation of Novel Indole-Derived Thioureas” (Molecules : A Journal of Synthetic Chemistry and Natural …, 2018)
In brackets after ≈: the same amount, converted by molar mass.

Columns and labels:
[1] = system: M. luteus ATCC 9341; assay: MIC, twofold serial agar dilution; type: cell-based; conditions: Micrococcus luteus, ATCC9341, 18 h, 35 °C, read-out: minimal inhibitory concentrations (MIC)
[2] = system: S. aureus ATCC 29213; assay: disc diffusion method; type: cell-based, Staphylococcus aureus; conditions: Staphylococcus aureus, ATCC29213, applied 400 µg per disc, dash = lack of the growth inhibition area, read-out: diameter of growth inhibitory zone (GIZ)
[3] = system: B. cereus ATCC 11778; assay: disc diffusion method; type: cell-based, Bacillus cereus; conditions: Bacillus cereus, ATCC11778, applied 400 µg per disc, dash = lack of the growth inhibition area, read-out: diameter of growth inhibitory zone (GIZ)
[4] = system: M. luteus ATCC 9341; assay: disc diffusion method; type: cell-based, Micrococcus luteus; conditions: Micrococcus luteus, ATCC9341, applied 400 µg per disc, dash = lack of the growth inhibition area, read-out: diameter of growth inhibitory zone (GIZ)
[5] = system: RSV; assay: microbe, parasite or virus in culture; type: cell-based, human respiratory syncytial virus; conditions: human respiratory syncytial virus, Vero 76, read-out: RSV EC50
[6] = target: T1, S. aureus topoisomerase IV (Staphylococcus aureus, UniProt P0C1S7+P0C1U9); assay: biochemical
T1 sequence (P0C1U9 whole entry): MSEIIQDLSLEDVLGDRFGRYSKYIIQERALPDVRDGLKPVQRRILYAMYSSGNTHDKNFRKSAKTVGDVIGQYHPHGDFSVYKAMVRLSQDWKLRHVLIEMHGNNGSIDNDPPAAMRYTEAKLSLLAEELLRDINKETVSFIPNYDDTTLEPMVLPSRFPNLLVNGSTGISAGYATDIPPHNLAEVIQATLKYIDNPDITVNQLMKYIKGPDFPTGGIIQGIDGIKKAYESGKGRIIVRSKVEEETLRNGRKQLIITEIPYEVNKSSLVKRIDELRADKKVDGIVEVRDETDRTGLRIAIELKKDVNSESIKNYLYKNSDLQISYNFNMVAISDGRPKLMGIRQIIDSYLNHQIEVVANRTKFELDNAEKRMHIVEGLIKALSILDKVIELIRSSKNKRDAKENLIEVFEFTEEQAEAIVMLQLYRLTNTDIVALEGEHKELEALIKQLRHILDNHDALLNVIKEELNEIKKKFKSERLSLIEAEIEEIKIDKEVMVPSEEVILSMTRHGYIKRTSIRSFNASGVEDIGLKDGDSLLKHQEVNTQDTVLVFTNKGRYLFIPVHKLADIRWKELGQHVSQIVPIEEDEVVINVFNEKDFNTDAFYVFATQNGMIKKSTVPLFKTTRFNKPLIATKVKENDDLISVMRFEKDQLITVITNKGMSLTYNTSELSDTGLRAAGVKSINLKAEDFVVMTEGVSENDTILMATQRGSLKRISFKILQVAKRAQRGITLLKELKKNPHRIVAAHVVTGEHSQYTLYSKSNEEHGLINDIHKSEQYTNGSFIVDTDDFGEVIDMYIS
T1 sequence (P0C1S7 whole entry): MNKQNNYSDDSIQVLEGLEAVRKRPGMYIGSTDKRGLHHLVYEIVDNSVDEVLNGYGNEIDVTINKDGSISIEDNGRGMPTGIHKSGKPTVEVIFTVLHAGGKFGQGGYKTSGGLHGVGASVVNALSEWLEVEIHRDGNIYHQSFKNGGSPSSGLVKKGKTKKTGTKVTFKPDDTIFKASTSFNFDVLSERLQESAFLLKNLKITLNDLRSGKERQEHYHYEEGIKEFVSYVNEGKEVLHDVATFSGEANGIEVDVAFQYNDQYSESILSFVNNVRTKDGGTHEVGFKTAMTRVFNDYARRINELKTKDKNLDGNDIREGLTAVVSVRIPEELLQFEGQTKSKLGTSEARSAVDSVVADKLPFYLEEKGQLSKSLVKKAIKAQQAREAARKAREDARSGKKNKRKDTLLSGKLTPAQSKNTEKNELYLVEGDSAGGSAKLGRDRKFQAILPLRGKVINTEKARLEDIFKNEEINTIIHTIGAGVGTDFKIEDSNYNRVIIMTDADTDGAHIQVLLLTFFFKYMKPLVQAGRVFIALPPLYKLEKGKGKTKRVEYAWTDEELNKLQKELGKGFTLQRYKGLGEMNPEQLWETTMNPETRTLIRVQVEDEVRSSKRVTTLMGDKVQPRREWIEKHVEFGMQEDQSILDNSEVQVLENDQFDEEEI

[7] = system: methicillin-resistant strains of S. aureus (MRSA); assay: MIC against hospital strains; conditions: Staphylococcus aureus
[8] = system: HIV-1; assay: microbe, parasite or virus in culture; conditions: Human immunodeficiency virus 1, MT4, read-out: HIV-1 EC50
[9] = target: T1, S. aureus topoisomerase IV; conditions: 64 to 0.5 µg/mL, Figure 2
[10] = hospital S. aureus MRSA strain 389/10
[11] = hospital S. aureus MRSA strain 390/10
[12] = hospital S. aureus MRSA strain 391/10
[13] = hospital S. aureus MRSA strain 392/10
[14] = hospital S. aureus MRSA strain 393/10
[15] = hospital S. aureus MRSA strain 394/10
[16] = hospital S. aureus MRSA strain 399/10
[17] = hospital S. aureus MRSA strain 450/11
[18] = hospital S. aureus MRSA strain 451/11
[19] = hospital S. aureus MRSA strain 452/11

Row | Structure (SMILES) | MIC [1] [µg/mL] | zone of inhibition at 400 µg/disc [2] [mm] | zone of inhibition at 400 µg/disc [3] [mm] | zone of inhibition at 400 µg/disc [4] [mm] | EC50 [5] [µM] | IC50 [6] [µM] | MIC [7, 10] [µg/mL] | MIC [7, 11] [µg/mL] | MIC [7, 12] [µg/mL] | MIC [7, 13] [µg/mL] | MIC [7, 14] [µg/mL] | MIC [7, 15] [µg/mL] | MIC [7, 16] [µg/mL] | MIC [7, 17] [µg/mL] | MIC [7, 18] [µg/mL] | MIC [7, 19] [µg/mL] | EC50 [8] [µM] | effect against DNA topoisomerase IV (in words) [9]
1 | S=C(NCCc1c[nH]c2ccccc12)Nc1ccc(Cl)c(Cl)c1 [Compound 6, 1-(2-(1H-indol-3-yl)ethyl)-3-(3,4-dichlorophenyl)thiourea] | 12.5 (≈ 34.3 µM) | 15 | 15 | 15 | > 13 | 79.3 | 6.25 (≈ 17.2 µM) | 6.25 (≈ 17.2 µM) | 6.25 (≈ 17.2 µM) | 6.25 (≈ 17.2 µM) | 6.25 (≈ 17.2 µM) | 6.25 (≈ 17.2 µM) | 6.25 (≈ 17.2 µM) | 6.25 (≈ 17.2 µM) | 6.25 (≈ 17.2 µM) | 6.25 (≈ 17.2 µM) | > 45 | 
2 | S=C(NCCc1c[nH]c2ccccc12)Nc1cccc(Cl)c1 [Compound 14, 1-(2-(1H-Indol-3-yl)ethyl)-3-(3-chlorophenyl)thiourea] | 200 (≈ 606 µM) | 15 | 15 | 12 | > 32 |  | 25 (≈ 75.8 µM) | 25 (≈ 75.8 µM) | 25 (≈ 75.8 µM) | 25 (≈ 75.8 µM) | 25 (≈ 75.8 µM) | 25 (≈ 75.8 µM) | 25 (≈ 75.8 µM) | 25 (≈ 75.8 µM) | 25 (≈ 75.8 µM) | 25 (≈ 75.8 µM) | > 42 | not significantly effective
